# According to patent US11883444B2, “Inhibition of enteric infection through the modulation of microbiota” (priority 2017, dated 2024):
# How the values were obtained:
# Type in all cases: in vivo
# [1] = test system: fecal microbiota; experiment: 16S rRNA gene analysis of the fecal microbiota; details: adult mice; FIG. 7, FIG. 2D
# Procedure: Fecal pellet DNA extraction and 16S rRNA gene sequencing and sequence curation. Fecal samples were freshly collected and DNA was extracted using the E.Z.N.A® stool DNA kit. Amplicons were generated of the V4 region within the 16S rRNA gene and the fragments were sequenced using an Illumina MiSeq (14). These sequences were curated using Mothur (v.1.35) (14, 15) and sequences were binned into operational taxonomic units (OTUs). Taxonomic assignments were determined using a naive Bayesian classifier with the Ribosomal Database Project (RDP) training set (version 10) requiring an 80% bootstrap confidence score (16). Treatment with vancomycin and SCFAs and special diet. Vancomycin (250 mg/L) was administered in the mouse drinking water for 7 days before S. Typhimurium and C. rodentium infection and the treatment was kept during the length of the experiment.
# [2] = test system: S. Typhimurium ΔspiA; experiment: S. Typhimurium ΔspiA oral infection of mice: pathogen loads, cecal histology, survival
# Procedure: (§1) Reconstitution of GF mice with cecal contents and defined bacteria. Cecal contents from single neonatal and 7-week old SPF mice were diluted into 50 ml (per one adult mouse) or 5 ml (per one 4, 12, 16-day old mouse) of PBS, and passed through a 70 μm cell strainer to eliminate clumps and debris under sterile conditions) under an atmosphere of 5% H2, 5% CO2 and 90% N2 in an anaerobic growth chamber (Coy Manufacturing, Grass Lake, MI). Then 200 μl of the suspension was processed by intragastric gavage into each of the recipient GF mice. Bacteroides species were anaerobically grown at 37° C. overnight in pre-reduced chopped-meat broth (Anaerobe systems, Morgan Hill, CA). E. coli were grown aerobically overnight in LB broth with shaking.
# (§2) Enteric pathogen infection. Kanamycin (Km)-resistant and Streptomycin (Sm)-resistant Salmonella enterica serovar Typhimurium (S. Typhimurium) SL1344 ΔspiA was a gift from Dr. Denise Monack, Stanford University. Kanamycin (Km)-resistant wild-type Citrobacter rodentium strain DBS120 (pCRP1::Tn5) was a gift from Dr. David Schauer, Massachusetts Institute of Technology. […] Mice were infected by oral gavage with 0.2 ml of PBS containing approximately 5×10^7 CFU of S. Typhimurium, and 1×10^9 CFU of C. rodentium. […] Mouse survival was monitored for 7 days after infection. […]
# [3] = test system: C. rodentium; experiment: C. rodentium oral infection of mice: pathogen loads in feces; details: adult mice, vancomycin in drinking water; day 25-30 after infection; FIG. 2B
# Procedure: as §1, §2
# [4] = test system: Clostridium cluster IV and XIVa; experiment: Intestinal colonization of Clostridia in GF mice, qPCR of fecal DNA; details: metabolite in drinking water of GF mice gavaged with Clostridia consortium; FIG. 4D, 9C
Compound,change of fecal microbiota composition [1],"increase of S. Typhimurium colonization in fecal and cecal contents ([2]; adult mice, vancomycin in drinking water, day 1 after infection, FIG. 2C) [logs]",higher C. rodentium pathogen loads in the feces vs untreated mice [3] [logs],enhanced colonization of Clostridia of IV and XIVa clusters [4],"reduction of intestinal loads of S. Typhimurium ΔspiA ([2]; GF mice given succinate in drinking water and Clostridia consortium by gavage, FIG. 4E, F) [fold]"
CN[C@H](CC(C)C)C(=O)N[C@H]1C(=O)N[C@@H](CC(N)=O)C(=O)N[C@H]2C(=O)N[C@H]3C(=O)N[C@H](C(=O)N[C@H](C(=O)O)c4cc(O)cc(O)c4-c4cc3ccc4O)[C@H](O)c3ccc(c(Cl)c3)Oc3cc2cc(c3O[C@@H]2O[C@H](CO)[C@@H](O)[C@H](O)[C@H]2O[C@H]2C[C@](C)(N)[C@H](O)[C@H](C)O2)Oc2ccc(cc2Cl)[C@H]1O [vancomycin],depleted the microbiota of Clostridiales and Bacteroidales and increased the abundance of Enterobacteriaceae and Lactobacillaceae,4 to 5,~6,,
CC(O)C(=O)O (stereo not shown) [lactate],,,,not,
O=C(O)CCC(=O)O [succinate],,,,4 to 5 logs,~100
CC(=O)O [acetate],,,,not,
